US8741955B2, “D-serine transporter inhibitors as pharmaceutical compositions for the treatment of central nervous system disorders” (Allergan, Inc., priority 2011, dated 2014)
pIC50: −log10 of the molar value.

Experiments:
pre-pulse inhibition = pre-pulse inhibition (PPI) and startle response; assay type: in vivo, rat; details: D-serine 600 mg/kg, L-4OHPG 15 mg/kg; for effect on the absolute startle response: control experiment
Method: Pre-pulse inhibition was measured using the SR-Lab Startle Response system fitted with a rat enclosure. During the acclimation period, each rat (n=8/group) was habituated with a 5 min interval of 65-dB background noise followed by six 120 dB startle pulses alone, each 40 ms long. This acclimation phase was followed by a 15 min PPI test session where rats were presented with 120 dB startle pulses without a pre-pulse (“pulse alone”) or pulses preceded by a 20 ms pre-pulse of 3, 6, or 12 dB above background noise (“PP3”, “PP6”, or “PP12”, respectively) and ended with five 120 dB startle pulses. PPI was recorded for pre-pulse intensities of 3, 6, and 12 dB, and no stimulus. Each pre-pulse trial was administered in pseudorandom order. The 120 dB pulse alone trials were randomly interspersed within the pre-pulse trials and used for comparison with pre-pulse trials. PPI data were calculated as a percentage of PPI by comparing the pulse-alone versus the PP trials using the formula [100−(response to pre-pulse+120 dB)/(response to 120 dB alone)×100]. Experimenter was masked to treatment during testing and analysis.
Data were analyzed with a 2-way ANOVA with Condition and Treatment as factors with post hoc Bonferroni comparisons.

asc-1 = molecular target: T1, asc-1 (Rattus norvegicus, UniProt P63116); experiment: sodium-independent [3H]D-serine transport into rat forebrain synaptosomes; assay type: biochemical; details: inhibition of [3H]D-serine transport, rat brain synaptosomes; means of at least two determinations
T1 construct: from tissue; host or cells: rat forebrain P2 (synaptosome) fraction
T1 sequence (P63116 1-530): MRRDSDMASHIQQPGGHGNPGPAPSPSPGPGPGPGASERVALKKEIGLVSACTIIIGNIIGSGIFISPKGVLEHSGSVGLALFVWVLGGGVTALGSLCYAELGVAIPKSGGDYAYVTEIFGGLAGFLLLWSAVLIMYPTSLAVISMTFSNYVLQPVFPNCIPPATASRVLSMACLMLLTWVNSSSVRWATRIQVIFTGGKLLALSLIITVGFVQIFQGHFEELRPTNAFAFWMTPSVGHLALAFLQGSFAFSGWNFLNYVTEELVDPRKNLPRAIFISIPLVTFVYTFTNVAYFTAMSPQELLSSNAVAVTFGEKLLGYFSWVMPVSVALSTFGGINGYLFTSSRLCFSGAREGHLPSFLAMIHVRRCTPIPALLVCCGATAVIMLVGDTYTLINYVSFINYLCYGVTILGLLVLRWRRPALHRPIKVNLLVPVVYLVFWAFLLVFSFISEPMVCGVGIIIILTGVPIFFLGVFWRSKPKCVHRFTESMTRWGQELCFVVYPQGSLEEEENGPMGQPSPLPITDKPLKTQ
T1 sequence (Q794F9 1-527 partner): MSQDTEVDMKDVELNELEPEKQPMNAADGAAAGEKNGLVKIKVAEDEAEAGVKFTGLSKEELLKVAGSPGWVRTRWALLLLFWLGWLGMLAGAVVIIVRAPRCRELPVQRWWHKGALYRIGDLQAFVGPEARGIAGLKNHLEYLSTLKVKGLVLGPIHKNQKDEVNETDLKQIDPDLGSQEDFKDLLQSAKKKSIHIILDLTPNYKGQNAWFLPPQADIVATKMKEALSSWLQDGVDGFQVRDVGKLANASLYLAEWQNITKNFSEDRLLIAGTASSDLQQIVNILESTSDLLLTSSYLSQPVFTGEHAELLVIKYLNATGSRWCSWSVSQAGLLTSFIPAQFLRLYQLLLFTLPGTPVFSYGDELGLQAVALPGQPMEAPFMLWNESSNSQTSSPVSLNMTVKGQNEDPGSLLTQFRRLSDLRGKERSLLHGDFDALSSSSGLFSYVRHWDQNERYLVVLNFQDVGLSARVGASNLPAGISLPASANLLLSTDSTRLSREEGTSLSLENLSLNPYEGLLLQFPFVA
Method: Under the assay conditions used, the sodium-independent transport of D-serine by rodent forebrain synaptosomes is mediated by asc-1 (Rutter et al., 2007), and the sodium-dependent transport of D-serine into astrocytes in culture is mediated by an ASCT transporter, ASCT2 according to the literature (Ribeiro et al., 2002).
Synaptosome assays: a P2 fraction of rat forebrain was prepared and assayed immediately. Aliquots of the P2 preparation (approx. 1 mg of original tissue weight) were incubated in sodium-free assay buffer (CholineCl: 128 mM, KCl: 3.5 mM; KH2PO4: 1.5 mM; MgCl2: 1 mM; CaCl2: 1 mM; glucose: 10 mM; Tris-acetate buffer: 10 mM, pH7.4) containing [^3H]D-serine (final concentration of 50 nM) and test compounds in duplicate for 4 mins at room temperature. The synaptosomes containing radiolabel were collected by filtration onto Whatman GF/C filters, and washed twice with ice cold assay buffer. Filters were solubilized in scintillation fluid and radioactivity determined in a beta counter. IC50 values were determined as described for the cell-based assays above.

pIC50 (asc-1) | SMILES | effect on the absolute startle response (pre-pulse inhibition) | effect on PPI (pre-pulse inhibition; PP3, PP6, PP12)
5.03 | N[C@H](CO)C(=O)O [D-serine] | neither L-4OHPG nor D-serine had any significant effect | –
4.00 | N[C@H](C(=O)O)c1ccc(O)cc1 [L-4-hydroxyphenylglycine] | neither L-4OHPG nor D-serine had any significant effect | reduced PPI, an effect that reached significance at the PP12 intensity level
